This note sets out measurements from US5250679A, “Nonpeptidyl platelet aggregation inhibitors having specificity for the GPIIb III receptor” (Genentech, Inc., priority 1992, dated 1993).

Structures can show the parent of a compound that is named as a salt. Where two headings read alike, the source gives them in different places.

The target in test [1] is T1, GP IIb IIIa (Homo sapiens, UniProt P05106+P08514).
T1 construct: from tissue; host or cells: outdated human platelets
The test can be described thus: GP IIb IIIa -von Willebrand factor (vWF) ELISA Assay (vWF/IIbIIIa). The format is binding. The conditions noted are these: Example 30, G # table. The procedure: Microtiter plates are coated with 1.0 mg/ml GP IIb IIIa, prepared by the method of Fitzgerald et al., (Anal. Biochem. 151: 169-177 [1985]) and allowed to incubate overnight in coat buffer. The plates are then washed three times in wash buffer (0.05% Tween 20 in PBS) and 150 ml of assay buffer is added and allowed to incubate for 1-2 hours at room temperature on plate shaker. […] Fifty ml of 4.0 mg/ml vWF (prepared as described by Ledford et al., Thrombosis and Haemostasis, 64(4): 569-575 ]1990]) in assay buffer is then added and allowed to incubate for one hour at room temperature on plate-shaker. The plates are washed three times and the antibody mixture is added (1:5000 of mouse anti-vWF and 1:5000 of rabbit-anti-mouse-Fc-HRP, both commercially available) in assay buffer and incubated for 1 hour at room temperature on plate-shaker. […] The color change of OPD/H2 O2 reagent is read at 492 nm with a 405 nm reference wavelength on the filter photometer.
On the technique in general: An ELISA detects its analyte on a solid surface through an enzyme-linked reagent.

For test [2], the target named is T2, Human Vitronectin receptor (av b3) (Homo sapiens, UniProt P05106+P06756).
T2 construct: is purified from human placenta; from tissue; host or cells: human placenta
T2 sequence (P06756 31-889 limits assumed): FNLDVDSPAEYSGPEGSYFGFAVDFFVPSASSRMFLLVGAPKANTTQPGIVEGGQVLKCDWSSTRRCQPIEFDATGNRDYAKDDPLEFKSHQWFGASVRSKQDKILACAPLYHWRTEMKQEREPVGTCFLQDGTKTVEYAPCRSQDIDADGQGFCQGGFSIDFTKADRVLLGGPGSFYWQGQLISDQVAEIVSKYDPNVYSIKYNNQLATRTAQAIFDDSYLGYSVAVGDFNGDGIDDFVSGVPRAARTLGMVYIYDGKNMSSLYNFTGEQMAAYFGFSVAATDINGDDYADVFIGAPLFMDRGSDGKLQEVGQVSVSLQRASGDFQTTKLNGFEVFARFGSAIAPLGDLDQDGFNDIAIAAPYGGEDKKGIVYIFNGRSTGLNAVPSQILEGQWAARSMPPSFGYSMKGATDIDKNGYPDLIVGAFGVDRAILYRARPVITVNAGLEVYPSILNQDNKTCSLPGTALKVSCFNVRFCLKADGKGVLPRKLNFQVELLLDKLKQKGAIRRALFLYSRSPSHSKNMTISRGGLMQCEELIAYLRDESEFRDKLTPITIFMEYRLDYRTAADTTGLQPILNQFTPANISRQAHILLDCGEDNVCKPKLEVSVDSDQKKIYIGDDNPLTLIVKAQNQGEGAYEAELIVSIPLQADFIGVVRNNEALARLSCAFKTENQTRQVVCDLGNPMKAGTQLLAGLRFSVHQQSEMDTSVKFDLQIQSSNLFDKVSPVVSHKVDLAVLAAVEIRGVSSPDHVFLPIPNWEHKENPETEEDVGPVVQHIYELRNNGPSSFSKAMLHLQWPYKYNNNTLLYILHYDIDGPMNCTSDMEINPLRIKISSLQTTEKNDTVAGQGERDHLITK
T2 sequence (P06756 891-1048 partner limits assumed): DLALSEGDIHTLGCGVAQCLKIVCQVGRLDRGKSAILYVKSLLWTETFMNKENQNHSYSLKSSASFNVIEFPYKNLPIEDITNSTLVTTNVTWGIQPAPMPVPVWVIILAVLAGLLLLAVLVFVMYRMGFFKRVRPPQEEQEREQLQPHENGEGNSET
T2 sequence (P05106 27-788): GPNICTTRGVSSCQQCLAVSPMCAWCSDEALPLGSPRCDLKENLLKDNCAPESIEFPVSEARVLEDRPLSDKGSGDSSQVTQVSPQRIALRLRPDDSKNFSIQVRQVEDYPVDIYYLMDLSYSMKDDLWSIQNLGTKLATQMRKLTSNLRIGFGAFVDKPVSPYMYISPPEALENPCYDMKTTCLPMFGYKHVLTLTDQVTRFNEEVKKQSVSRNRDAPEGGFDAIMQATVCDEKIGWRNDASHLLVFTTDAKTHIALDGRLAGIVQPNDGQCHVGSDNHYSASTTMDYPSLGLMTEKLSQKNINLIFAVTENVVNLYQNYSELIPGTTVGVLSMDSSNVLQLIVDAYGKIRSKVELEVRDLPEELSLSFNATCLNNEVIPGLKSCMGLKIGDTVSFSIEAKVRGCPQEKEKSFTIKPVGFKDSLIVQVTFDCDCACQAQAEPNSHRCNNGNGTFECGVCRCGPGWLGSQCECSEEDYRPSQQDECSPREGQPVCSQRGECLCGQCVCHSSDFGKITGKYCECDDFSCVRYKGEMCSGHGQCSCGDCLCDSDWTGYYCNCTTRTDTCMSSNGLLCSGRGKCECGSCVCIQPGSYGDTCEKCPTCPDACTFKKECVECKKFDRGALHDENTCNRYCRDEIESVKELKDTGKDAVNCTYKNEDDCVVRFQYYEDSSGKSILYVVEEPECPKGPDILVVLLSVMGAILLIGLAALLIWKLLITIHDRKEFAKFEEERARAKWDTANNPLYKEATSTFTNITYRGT
The test can be described thus: Human Vitronectin-Vitronectin Receptor (av b3) ELISA Assay (Vn/VnR). It is filed as binding. The settings on record: Example 30, G # table.
Description: Human vitronectin (Vn) is isolated from human plasma and purified by affinity chromatography by the method of Yatohgo et. al., (Cell Structure and Function 13: 281-292 [1988]).
Human vitronection receptor (VnR) is purified from human placenta by the method of Pytela et al., (Methods Enzymol., 144: 475 [1987]). Alternatively the av b3 receptor can be purified from some cell lines (e.g., human embryonic kidney 293 cells) transfected with DNA sequences for both the av and b3 subunits. The subunits are purified by employing octylglucoside extraction followed by Con-A, Heparin-Sepharose, and S-300 Chromatography.
This mouse Mab is specific for the b3 subunit of the vitronectin receptor.
Rabbit Fab 2 anti-mouse Fc fragment horse radish peroxidase conjugate (anti-MuFc HRP) is obtained from PelFreeze (cat. no. 715305-1).
Maxisorp microtiter plates are coated with 2 mg/ml human vitronectin dissolved in PBS (50 ml/well) and stored overnight at 4° C. The plates are washed two times with PBS-0.05% Tween-20 (wash buffer) and blocked by incubating with about 150 ml/well of assay buffer (1%, BSA [RIA grade or better] in 50 mM Tris-HCl, 100 mM NaCl, 1 mM MgCl2, CaCl2, MnCl2 pH 7.4) for 60 minutes. […] The blocked plates are emptied and 25 ml/well of inhibitor or standard solution is added to each well. Twenty-five ml of a 30 mg/ml solution of purified av b3 in assay buffer is pipetted into the coated plate. The final concentration of receptor in the assay well is about 15 mg/ml. The plate is incubated on a shaker for 60 minutes. Meanwhile, for each microtite plate, 6 ml buffer solution containing 1.5 mg/ml of mouse monoclonal antibody specific for b3 is prepared. To this solution is added ml of the secondary antibody, which is anti-mouse-Fc-HRP antibody conjugate. For example, for one plate, prepare 6 ml of a 1.5 mg/ml mouse Mab solution to which is added 1 ml of anti-mouse-Fc-HRP antibody stock, (this represents a 1:6000 dilution of the antibody-HRP conjugate). This mixture is allowed to incubate during the receptor-inhibitor incubation. The assay plates are washed 4 times with PBS-Tween and 50 ml/well of the antibody mixture is then pipetted into the plate for a 60 minute incubation. The plate is washed 4 times and the color reaction is developed with 50 ml/well of 0.67 mg/ml o-phenyldiamine in PBS containing 0.012% H2 O2. Alternatively, 16 mM citric acid, 50 mM Na2 PO4 at pH 5.0 can be used as a substrate buffer. The reaction is stopped with 50 ml/well 1 M H2 SO4. The plates are read at 492-405 nm and the data analyzed by four-parameter fit.

Test [3] addresses T1, GP IIb IIIa. In words: Fibrinogen-GP IIb IIIa Receptor ELISA Binding Assay (Fg/IIbIIIa). The method, boiled down:
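Purified human platelet GP IIb IIIa binding to immobilised purified fibrinogen was run with compound at room temperature for 1 h. IC50 values were determined.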

Test [4] relates to human platelet rich plasma (PRP). In words: In Vitro Human Platelet Aggregation Assay (PA). The format is cell-based. The conditions noted are these: Homo sapiens, Platelet. The procedure: In addition to the GPIIb IIIa ELISA assay, platelet aggregation assays may be performed in human platelet rich plasma (PRP). […] The blood is centrifuged at 160×g for 10 min at 22° C. and then allowed to stand for 5 min after which the PRP is decanted. Platelet poor plasma (PPP) is isolated from the remaining blood after centrifugation at 2000×g for 25 min. The platelet count of the PRP is adjusted to ca. 300,000 per microliter with PPP.
A 225 mL aliquot of PRP plus 25 mL of either a dilution of the test sample or a control (PBS) is incubated for 5 min in a Chrono-log Whole Blood Aggregometer at 25° C. An aggregating agent (collagen, 1 mg/ml; U46619, 100 ng/ml; or ADP, 8 mM) is added and the platelet aggregation recorded.
Platelet aggregation assays are performed in human platelet rich plasma (PRP). […] The blood is centrifuged at 160×g for 10 minutes at 22° C. and allowed to stand for 5 minutes after which the PRP is decanted. Platelet poor plasma (PPP) is isolated from the remaining blood after centrifugation at 2000×g for 25 minutes. The platelet count of the PRP is diluted to about 300,000 platelets per microliter with PPP.
A 225 ml aliquot of PRP plus 25 ml of either a dilution of the test inhibitor sample or a control (PBS) is incubated for 5 minutes in a Chrono-log Whole Blood Aggregometer at 25° C. An aggregating agent (collagen, 1 mg/ml; U46619, 100 ng/ml; or ADP, 17 mM) is added and the transmission is recorded.

Setting [5] is: Example 29, Cmpd # 1-105, read-out: IC50 Fg/IIbI.
[6] abbreviates: Example 30, G # table, read-out: IC50 (μM) Fg/IIbIIIa.
Where [7] appears, read: citrate, read-out: PA IC50 (μM) (citrate).
Where [8] appears, read: heparin, read-out: PA IC50 (μM) (heparin).
The mark [9] stands for this setting: Examples 29 and 30, Cmpd # tables, read-out: IC50 (μM) Fg/IIbIIIa.

T1 sequence (P08514 32-887 limits assumed): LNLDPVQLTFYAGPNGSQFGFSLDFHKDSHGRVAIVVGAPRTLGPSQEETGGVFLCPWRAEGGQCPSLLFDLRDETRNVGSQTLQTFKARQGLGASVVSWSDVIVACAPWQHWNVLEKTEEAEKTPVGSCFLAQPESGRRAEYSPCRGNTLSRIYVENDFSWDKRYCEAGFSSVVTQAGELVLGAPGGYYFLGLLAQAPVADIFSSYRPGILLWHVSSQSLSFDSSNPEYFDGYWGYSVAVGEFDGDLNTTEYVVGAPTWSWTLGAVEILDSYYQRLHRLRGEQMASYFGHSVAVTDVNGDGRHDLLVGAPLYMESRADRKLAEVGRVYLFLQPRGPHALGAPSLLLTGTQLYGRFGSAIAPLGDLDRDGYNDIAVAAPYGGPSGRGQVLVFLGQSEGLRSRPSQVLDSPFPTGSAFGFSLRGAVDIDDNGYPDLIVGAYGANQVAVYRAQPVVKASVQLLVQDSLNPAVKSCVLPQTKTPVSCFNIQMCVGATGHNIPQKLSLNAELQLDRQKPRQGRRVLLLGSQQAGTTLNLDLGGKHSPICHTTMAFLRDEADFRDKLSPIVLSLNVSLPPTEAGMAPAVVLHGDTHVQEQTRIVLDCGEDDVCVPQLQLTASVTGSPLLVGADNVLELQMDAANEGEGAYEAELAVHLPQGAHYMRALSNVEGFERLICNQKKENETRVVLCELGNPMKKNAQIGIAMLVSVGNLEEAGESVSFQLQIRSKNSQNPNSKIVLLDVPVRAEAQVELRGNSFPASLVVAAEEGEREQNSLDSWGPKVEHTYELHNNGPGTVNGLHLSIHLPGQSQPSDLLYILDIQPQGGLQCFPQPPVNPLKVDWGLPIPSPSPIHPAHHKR
T1 sequence (P08514 891-1039 partner limits assumed): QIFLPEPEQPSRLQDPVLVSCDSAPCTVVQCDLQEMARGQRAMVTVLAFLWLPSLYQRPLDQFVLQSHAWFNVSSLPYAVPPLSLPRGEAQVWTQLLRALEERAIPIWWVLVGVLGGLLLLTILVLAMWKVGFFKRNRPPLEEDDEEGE
T1 sequence (P05106 27-788): as the sequence (P05106 27-788) above

With `CN1C(=O)CN(CCC(=O)O)C(=O)c2cc(CCCCNC(=N)N)ccc21` [Cmpd 20], the IC50 on GP IIb IIIa [1] is 0.096 µM; in test [2], over 10 µM; on GP IIb IIIa [3] (setting [5]) it was 0.25 µM; at GP IIb IIIa [3] (setting [6]) it was 0.245 µM.
The like results for `CN1C(=O)CN(CCC(=O)O)C(=O)c2cc(CCCCCN)ccc21` [Cmpd 27, 1-methyl-4-(2-carboxyethyl)-7-(5-amino-1-pentyl)-3,4-dihydro-1H-1,4-benzodiazepine-2,5-dione trifluroacetate] were, in that order, 0.78 µM, over 10 µM, 1.9 µM and 1.9 µM.
Consider `CN1C(=O)CN(CCC(=O)O)C(=O)c2cc(CCCCCNC(=N)N)ccc21` [Cmpd 28, 1-methyl-4-(2-carboxyethyl)-7-(5-guanidino-1-pentyl)-3,4-dihydro-1H-1,4-benzodiazepine-2,5-dione trifluroacetate], for which the IC50 on GP IIb IIIa [1] was 0.024 µM; in test [2], over 10 µM; on GP IIb IIIa [3] (setting [5]), 0.055 µM; at GP IIb IIIa [3] (setting [6]), 0.055 µM.
Turning to `CN1C(=O)CN(CCC(=O)O)C(=O)c2cc(C#CCCCN)ccc21` [Cmpd 33, 1-methyl-4-(2-carboxyethyl)-7-(5-amino-1-pentynyl)-3,4-dihydro-1H-1,4-benzodiazepine-2,5-dione trifluroacetate], the IC50 is 85.5 µM in test [4] (setting [7]); 0.39 µM against GP IIb IIIa [1]; over 10 µM in test [2]; 0.096 µM on GP IIb IIIa [3] (setting [5]); 0.096 µM on GP IIb IIIa [3] (setting [6]).
On to `N=C(N)NCCCC#Cc1ccc2c(c1)C(=O)N(CCC(=O)O)CC(=O)N2Cc1cccc([N+](=O)[O-])c1` [Cmpd 36, 1-(3-nitrobenzyl)-4-(2-carboxyethyl)-7-(5-guanidino-1-pentynyl)-3,4-dihydro-1H-1,4-benzodiazepine-2,5-dione trifluroacetate], for which the IC50 stood at 0.94 µM in test [4] (setting [7]); 0.0004 µM on GP IIb IIIa [1]; 3 µM in test [2]; 0.0032 µM at GP IIb IIIa [3] (setting [5]); 0.0032 µM on GP IIb IIIa [3] (setting [6]).
Turning to `N=C(N)NCCCCCc1ccc2c(c1)C(=O)N(CCC(=O)O)CC(=O)N2C(c1ccccc1)c1ccccc1` [Cmpd 69, 1-(diphenylmethyl)-4-(2-carboxyethyl)-7-(5-guanidinopentyl)-3,4-dihydro-1H-1,4-benxodiazepine-2,5-dione trifluoroacetate], the IC50 was 2.09 µM in test [4] (setting [7]); 3.9 µM in test [4] (setting [8]); over 10 µM in test [2]; 0.082 µM at GP IIb IIIa [3] (setting [5]); 0.082 µM on GP IIb IIIa [3] (setting [6]).
In the case of `N=C(N)NCCCC#Cc1ccc2c(c1)C(=O)N(CCC(=O)O)CC(=O)N2C(c1ccccc1)c1ccccc1` [Cmpd 71], the IC50 in test [4] (setting [7]) is 0.34 µM; in test [4] (setting [8]), 0.95 µM; in test [2] it was over 10 µM; at GP IIb IIIa [3] (setting [5]) it was 0.008 µM; on GP IIb IIIa [3] (setting [6]), 0.008 µM.
Turning to `NCCCCCCc1ccc2c(c1)C(=O)N(CCC(=O)O)CC(=O)N2C(c1ccccc1)c1ccccc1` [Cmpd 72, 1-(diphenylmethyl)-4-(2-carboxyethyl)-7-(6-aminohexyl)-3,4-dihydro-1H-1,4-benzodiazepine-2,5-dione trifluoroacetate], the IC50 is 0.46 µM in test [4] (setting [7]); 1.1 µM in test [4] (setting [8]); over 10 µM in test [2]; 0.022 µM on GP IIb IIIa [3] (setting [5]); 0.022 µM on GP IIb IIIa [3] (setting [6]).
For `N=C(N)NCCCC#Cc1ccc2c(c1)C(=O)N(CCC(=O)O)CC(=O)N2Cc1cccc(NC(=O)CNC(=N)N)c1` [Cmpd 107], the IC50 was 0.61 µM in test [4] (setting [7]); 0.89 µM in test [4] (setting [8]); over 10 µM in test [2]; 0.018 µM on GP IIb IIIa [3] (setting [6]); 0.018 µM on GP IIb IIIa [3] (setting [9]).
As to `NCCCCCCc1ccc2c(c1)C(=O)N(CCC(=O)O)CC(=O)N2Cc1cccc(NC(=O)CN)c1` [Cmpd 108], the IC50 in test [4] (setting [7]) is 0.55 µM; in test [4] (setting [8]), 1.09 µM; in test [2], over 10 µM; on GP IIb IIIa [3] (setting [6]), 0.012 µM; at GP IIb IIIa [3] (setting [9]) it was 0.012 µM.
Regarding `N=C(N)NCCCCCCc1ccc2c(c1)C(=O)N(CCC(=O)O)CC(=O)N2Cc1cccc(NC(=O)CNC(=N)N)c1` [Cmpd 109], the IC50 in test [4] (setting [7]) was 1.19 µM; in test [2], over 10 µM; at GP IIb IIIa [3] (setting [6]), 0.017 µM; at GP IIb IIIa [3] (setting [9]), 0.017 µM.
As to `NCCCCCCc1ccc2c(c1)C(=O)N(CCC(=O)O)CC(=O)N2Cc1cccc(NC(=O)CCN)c1` [Cmpd 110, 1-[3-(3-aminopropionyl)aminophenyl]methyl-4-(2-carboxyethyl)-7-(6-aminohexyl)-3,4-dihydro-1H-1,4-benzodiazapine-2,5-dione bistrifluoroacetate], the IC50 is 0.28 µM in test [4] (setting [7]); 0.83 µM in test [4] (setting [8]); over 10 µM in test [2]; 0.008 µM at GP IIb IIIa [3] (setting [6]); 0.008 µM on GP IIb IIIa [3] (setting [9]).
As to `N=C(N)NCCCCCCc1ccc2c(c1)C(=O)N(CCC(=O)O)CC(=O)N2Cc1cccc(NC(=O)CCNC(=N)N)c1` [Cmpd 111], the IC50 is 1.14 µM in test [4] (setting [7]); 1.49 µM in test [4] (setting [8]); over 10 µM in test [2]; 0.01 µM at GP IIb IIIa [3] (setting [6]); 0.01 µM on GP IIb IIIa [3] (setting [9]).
